Reference: patent publication CN115252762A, “一种高分子化合物的生长因子结合用途” (East China University of Science and Technology, priority 2021, dated 2022)

Tests used:
[1] = target: T1, bone morphogenetic protein-2 (BMP-2) [骨形态发生蛋白-2(BMP-2)] (Homo sapiens, UniProt P12643); assay: Glass surface BMP-2 binding, protein immunofluorescence; details: relative to (Lys0.4Nle0.6)30 polymer; grafted on glass
T1 sequence (P12643 283-396): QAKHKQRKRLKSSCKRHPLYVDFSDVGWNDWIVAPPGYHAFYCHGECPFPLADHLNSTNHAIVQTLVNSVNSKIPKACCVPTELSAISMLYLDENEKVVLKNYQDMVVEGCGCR

[2] = target: T2, fibroblast growth factor-21 (FGF-21) [成纤维细胞生长因子-21(FGF-21)] (Homo sapiens, UniProt Q9NSA1); assay: Glass surface FGF-21 binding, protein immunofluorescence; details: relative to (Lys0.4Nle0.6)30 polymer; grafted on glass
T2 sequence (Q9NSA1 29-209): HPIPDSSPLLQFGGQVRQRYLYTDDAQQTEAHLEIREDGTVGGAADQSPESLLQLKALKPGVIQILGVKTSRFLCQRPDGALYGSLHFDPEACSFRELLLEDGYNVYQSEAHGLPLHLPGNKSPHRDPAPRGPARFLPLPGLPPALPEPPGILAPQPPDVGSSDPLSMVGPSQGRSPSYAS

TGF-β = TGF-β (Homo sapiens, UniProt P01137); assay: Glass surface TGF-β binding, peptide versus polymer; details: relative to (Lys0.4Nle0.6)30 polymer; grafted on glass
Chain of TGF-β (P01137 279-390 limits assumed): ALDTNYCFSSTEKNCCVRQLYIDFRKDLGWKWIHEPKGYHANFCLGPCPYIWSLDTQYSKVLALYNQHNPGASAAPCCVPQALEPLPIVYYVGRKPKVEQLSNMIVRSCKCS

[3] = target: platelet-derived factor PDGF-AA [血小板衍生因子PDGF-AA] (Homo sapiens, UniProt P04085); assay: Glass surface PDGF-AA binding, peptide versus polymer; details: relative to (Lys0.4Nle0.6)30 polymer; grafted on glass
growth factors [生长因子] = assay: Glass surface growth factor binding, peptide versus polymer (overall); details: peptide versus (Lys0.4Nle0.6)30 polymer; grafted on glass

- BMP-2 binding amount, multiple of peptide polymer [1]: 1.99 fold
- FGF-21 binding amount, multiple of peptide polymer [2]: 2.55 fold
- TGF-β binding amount, multiple of peptide polymer (TGF-β): 1.61 fold
- PDGF-AA binding amount, multiple of peptide polymer [3]: 2.06 fold
- growth factor binding compared with polymer (growth factors [生长因子]): 优于聚合物
Substance: (L-Lys)-(L-Nor)-(D-Lys)-(D-Nor)-(L-Nor)-(L-Lys)-(D-Nor)-(D-Lys)-(L-Nor)-(D-Nor)-(L-Lys)-(L-Nor)-(D-Lys)-(D-Nor)-(L-Nor)-(L-Lys)-(D-Nor)-(D-Lys)-(L-Nor)-(D-Nor)-(L-Lys)-(L-Nor)-(D-Lys)-(D-Nor)-(L-Nor)-(L-Lys)-(D-Nor)-(L-Nor)-(L-Cys) [Lys0.4Nle0.6多肽]
